From US20130023553A1, “PEGYLATED OPIOIDS WITH LOW POTENTIAL FOR ABUSE AND SIDE EFFECTS” (Nektar Therapeutics, priority 2010, published 2013)

How the values were obtained:
mice = assay: Oral dose giving maximal analgesia; format: in vivo
squirrel monkeys = assay: Monkey self-administration model of addictive potential
Source text: Dose-related effects of the test articles were examined, using two or more doses of each drug in 3-4 subjects in a double alternation schedule in which each unit dose (or vehicle) was used in two consecutive sessions before a change in unit dose.
Addictive potential of opioid compounds and opioid conjugates of the invention may be assessed through the use of squirrel monkey models as known in the art.
Under the double alternation schedule, each unit dose (or vehicle) was available for intravenous self-administration for two consecutive sessions before the unit dose was changed. In this way, it was possible to establish the function relating unit dose of intravenous drug to (i) number of injections per session, and/or (ii) the percentage of total responses that occur on the lever leading to self-administration (injection-lever responding, % ILR). Unit doses of drugs ranged from 0.01 to 3.2 mg/kg/injection.

Male CD-1 mice = assay: Assessment of CNS side effects in mice (Straub tail, muscle rigidity, pinna reflex); settings: for Loss Pinna, number of animals responding (N=2) / Muscle Rigidity, number of animals responding (N=2) / Straub Tail Effect, number of animals responding (N=2): oral
Source text: The objective of this study was to provide an approximation of the side effect profile of various oligomeric conjugates for comparison to the parent compounds by measuring various gross behavioral and physiological signs following administration of compound.
Additional evaluations included muscle rigidity and pinna reflex.
Male CD-1 mice from Charles River Laboratories, Raleigh, N.C., weighing from 16-18 grams were maintained on a regular light/dark cycle (lights on 0600-1800) with ad libitum food and water for 1 week before commencement of testing. N=2 per treatment condition, i.e., separate mice for each dose of each test article, injection was performed via a 25-gauge ⅝-inch needle on a 1-mL tuberculin syringe for the s.c. route and a 22-gauge stainless steel mouse feeding tube for the p.o. route (Becton, Dickinson & Co., Franklin Lakes, N.J.). Each treatment condition was divided about evenly between two observers. […] Test article was administered (s.c. or p.o., and the mouse was placed immediately in the observation chamber). One-half, 1, 2, and 3 hours later, the animal was observed undisturbed for gross signs such as locomotor ataxia, tremor, hyperactivity, hypoactivity, convulsions, hindlimb splay, and Straub tail, and then removed and assessed for muscle tone (normal, rigid, flaccid), pinna reflex (presence or absence), righting reflex (intact or lost), and placing (whether or not the forepaws are extended when the mouse is placed near a surface).
Each of the tables show the number of animals responding at each dose, where N=2. […] A bolded value indicates the lowest dose at which a response was detected.

[1] = target: T1, human kappa opioid receptor (Homo sapiens, UniProt P41145); assay: cell-based; settings: for Emax: maximal response at the highest tested concentration, read-out: % max effect, kappa opioid receptor
T1 construct: expressed in transfected cells; host or cells: CHO cells
Method: (§1) Studies were conducted in CHO cells heterologously expressing the cloned human mu, kappa or delta opioid receptors. cAMP was measured using a cAMP HiRange homogenous time-resolved fluorescence assay (HTRF Assay), that is based on a competitive immunoassay principle (Cisbio, Cat.#62AM6PEC).
(§2) Briefly, suspensions of cells expressing either the mu, kappa or delta opioid receptors were prepared in buffer containing 0.5 mM isobutyl-methyl xanthine (IBMX). […] EC50 values were calculated for each compound from a sigmoidal dose-response plot of concentrations versus maximum response. To determine if the compounds behaved as full or partial agonists in the system, the maximal response at the highest tested concentrations of compounds were compared to that produced by a known full agonist.

human mu opioid receptor [2] = target: T2, human mu opioid receptor (Homo sapiens, UniProt P35372); assay: cell-based; settings: for Emax: maximal response at the highest tested concentration, read-out: % max effect, mu opioid receptor; for EC50: read-out: EC50, mu opioid receptor
T2 construct: expressed in transfected cells; host or cells: CHO cells
Method: as §1, §2

[3] = Pharmacokinetics following intravenous (IV) dosing; format: in vivo, Sprague-Dawley rats; settings: male, Sprague-Dawley, rat, plasma, iv, 1 mg/kg; for Cmax: read-out: Cmax; for half-life: read-out: T1/2(2); for Vd: read-out: Vss
Source text: (§3) There were 3 rats/group. All animals were food fasted overnight. […] The predose sample was collected from the JVC.
(§4) Following the last collection point, the animals were euthanized.

[4] = target: T1, human kappa opioid receptor; assay: biochemical; format: binding
Method: (§5) Radioligand displacement was measured using scintillation proximity assays (SPA).
(§6) Briefly, serial dilutions of the test compounds were placed in a 96-well plate to which were added SPA beads, membrane and radioligand. The assay conditions for each opioid receptor subtype are described in Table 10 below. The plates were incubated for 8 hours-overnight at room temperature, spun at 1000 rpm to pellet the SPA beads, and radioactivity was measured using the TopCount® microplate Scintillation counter. Specific binding at each concentration of test compound was calculated by subtracting the non-specific binding measured in the presence of excess cold ligand. IC50 values were obtained by non-linear regression of specific binding versus concentration curves and Ki values were calculated using Kd values that were experimentally pre-determined for each lot of membrane preparations.

human mu opioid receptor [5] = target: T2, human mu opioid receptor; assay: biochemical; format: binding; settings: CHO-K1 membranes, [3H]DAMGO 6 nM; read-out: Ki, Mu opioid receptor
Method: as §5, §6

[6] = Pharmacokinetics following oral (PO) dosing; format: in vivo, Sprague-Dawley rats; settings: male, Sprague-Dawley, rat, plasma, po, 5 mg/kg
Source text: as §3, §4

T2 sequence (P35372 whole entry): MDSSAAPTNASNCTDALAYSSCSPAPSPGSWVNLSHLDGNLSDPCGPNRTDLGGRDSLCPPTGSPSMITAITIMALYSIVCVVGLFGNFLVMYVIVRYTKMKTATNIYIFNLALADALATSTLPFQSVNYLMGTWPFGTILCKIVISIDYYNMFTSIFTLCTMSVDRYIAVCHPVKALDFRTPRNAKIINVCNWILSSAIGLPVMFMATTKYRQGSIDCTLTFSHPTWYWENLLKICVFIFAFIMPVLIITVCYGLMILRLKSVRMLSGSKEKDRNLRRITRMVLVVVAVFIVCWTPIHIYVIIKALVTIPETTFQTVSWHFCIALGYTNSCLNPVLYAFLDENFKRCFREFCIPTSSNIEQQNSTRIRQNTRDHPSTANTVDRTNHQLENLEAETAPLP
T1 sequence (P41145 whole entry): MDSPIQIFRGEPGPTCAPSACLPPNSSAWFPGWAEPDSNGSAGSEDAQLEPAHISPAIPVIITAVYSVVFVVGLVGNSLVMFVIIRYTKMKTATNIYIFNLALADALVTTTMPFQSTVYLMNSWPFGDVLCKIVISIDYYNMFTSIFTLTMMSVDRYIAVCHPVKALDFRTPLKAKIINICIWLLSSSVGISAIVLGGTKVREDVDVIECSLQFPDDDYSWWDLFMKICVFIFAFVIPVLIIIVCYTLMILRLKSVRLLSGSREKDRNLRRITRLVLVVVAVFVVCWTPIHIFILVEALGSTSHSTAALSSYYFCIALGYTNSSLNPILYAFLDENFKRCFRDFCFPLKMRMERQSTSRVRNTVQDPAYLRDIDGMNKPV

In the case of `CN1CC[C@]23c4c5ccc(O)c4O[C@H]2[C@@H](O)C=C[C@H]3[C@H]1C5` [Morphine, morphine, reference compound], the “oral dose at which maximal analgesia was obtained” value (mice) is reported as 20 mg/kg, the “injection lever responses (% ILR)” value (squirrel monkeys; 0.03 mg/kg/injection) is reported as 100% and the “subjects showing addictive behavior” value (squirrel monkeys; 0.1 mg/kg/injection) is reported as 100%. For the same compound, the “mice showing the straub tail response” value (Male CD-1 mice; oral doses up to 100 mg/kg) was 100%, the “Loss Pinna, number of animals responding (N=2)” value (“Loss Pinna, number” below) (Male CD-1 mice; 1 mg/kg) was 0 and the “Muscle Rigidity, number of animals responding (N=2)” value (shortened to “Muscle Rigidity, number”) (Male CD-1 mice; 1 mg/kg) was 0. The “Straub Tail Effect, number of animals responding (N=2)” value (from here on “Straub Tail Effect, number”) (Male CD-1 mice; 1 mg/kg) was 0, the “Loss Pinna, number” value (Male CD-1 mice; 3 mg/kg) was 2 and the “Muscle Rigidity, number” value (Male CD-1 mice; 3 mg/kg) was 0. The “Straub Tail Effect, number” value (Male CD-1 mice; 3 mg/kg) was 2, the “Loss Pinna, number” value (Male CD-1 mice; 10 mg/kg) was 1 and the “Muscle Rigidity, number” value (Male CD-1 mice; 10 mg/kg) was 1. For the same compound, the “Straub Tail Effect, number” value (Male CD-1 mice; 10 mg/kg) was 2, the “Loss Pinna, number” value (Male CD-1 mice; 30 mg/kg) was 2 and the “Muscle Rigidity, number” value (Male CD-1 mice; 30 mg/kg) was 2. For the same compound, the “Straub Tail Effect, number” value (Male CD-1 mice; 30 mg/kg) was 2, the “Loss Pinna, number” value (Male CD-1 mice; 100 mg/kg) was 2 and the “Muscle Rigidity, number” value (Male CD-1 mice; 100 mg/kg) was 2. The “Straub Tail Effect, number” value (Male CD-1 mice; 100 mg/kg) was 1, the “Loss Pinna, number” value (Male CD-1 mice; 300 mg/kg) was 2 and the “Muscle Rigidity, number” value (Male CD-1 mice; 300 mg/kg) was 2. For the same compound, the “Straub Tail Effect, number” value (Male CD-1 mice; 300 mg/kg) was 1.
Work on `COCCOC1C=CC2C3Cc4ccc(OC)c5c4C2(CCN3C)C1O5` (stereo not drawn) [α-6-mPEG1-O-codeine] yielded an Emax [1] of 51%, an Emax (human mu opioid receptor [2]) of 80% and an EC50 (human mu opioid receptor [2]) of 8.57 µM. For the same compound, the AUC [3] was 258 ng·h/mL, the AUC(0-inf) [3] was 262 ng·h/mL and the MRT last [3] was 32.2 min. For the same compound, the clearance [3] was 64.6 ± 8.75 mL/min/kg, the Cmax [3] was 723 ± 31.2 ng/mL and the half-life [3] was 42.1 ± 4.84 min. For the same compound, the Vd [3] was 2.22 ± 0.899 L/kg, the Ki [4] was 54.7 µM and the Ki (human mu opioid receptor [5]) was 1.82 µM.
For `COCCOCCOC1C=CC2C3Cc4ccc(OC)c5c4C2(CCN3C)C1O5` (stereo not drawn) [α-6-mPEG2-O-codeine], the EC50 [1] was 40.1 µM, the Emax [1] was 59% and the Emax (human mu opioid receptor [2]) was 75%. It also gave an EC50 (human mu opioid receptor [2]) of 5.14 µM, an AUC [3] of 242 ng·h/mL and an AUC(0-inf) [3] of 243 ng·h/mL. It also gave an MRT last [3] of 31.5 min, a clearance [3] of 69 ± 7.57 mL/min/kg and a Cmax [3] of 685 ± 41 ng/mL. It also gave a half-life [3] of 35.3 ± 2.78 min, a Vd [3] of 2.25 ± 0.166 L/kg and a Ki [4] of 22.6 µM. For the same compound, the Ki (human mu opioid receptor [5]) was 1.38 µM, the AUC [6] was 5.85 ng·h/mL and the AUC(0-inf) [6] was 6.98 ng·h/mL. For the same compound, the MRT last [6] was 62 min, the bioavailability [6] was 0.57% and the Cmax ([6]; read-out: Cmax) was 3.47 ± 0.606 ng/mL. For the same compound, the half-life ([6]; read-out: T1/2(2)) was 97.6 ± 28.4 min and the Tmax ([6]; read-out: Tmax (converted)) was 15 min.
